The source of these data is US20230321100A1, “CD73 INHIBITOR AND APPLICATION THEREOF IN MEDICINE” (BETTA PHARMACEUTICALS CO., LTD, priority 2020, published 2023).

pIC50: −log10 of the molar value.

The assay has as its target T1, CD73 (Calu-6 cells) (Homo sapiens, UniProt P21589).
T1 construct: endogenous in cells; host or cells: Calu-6 cells
T1 sequence (P21589 27-549): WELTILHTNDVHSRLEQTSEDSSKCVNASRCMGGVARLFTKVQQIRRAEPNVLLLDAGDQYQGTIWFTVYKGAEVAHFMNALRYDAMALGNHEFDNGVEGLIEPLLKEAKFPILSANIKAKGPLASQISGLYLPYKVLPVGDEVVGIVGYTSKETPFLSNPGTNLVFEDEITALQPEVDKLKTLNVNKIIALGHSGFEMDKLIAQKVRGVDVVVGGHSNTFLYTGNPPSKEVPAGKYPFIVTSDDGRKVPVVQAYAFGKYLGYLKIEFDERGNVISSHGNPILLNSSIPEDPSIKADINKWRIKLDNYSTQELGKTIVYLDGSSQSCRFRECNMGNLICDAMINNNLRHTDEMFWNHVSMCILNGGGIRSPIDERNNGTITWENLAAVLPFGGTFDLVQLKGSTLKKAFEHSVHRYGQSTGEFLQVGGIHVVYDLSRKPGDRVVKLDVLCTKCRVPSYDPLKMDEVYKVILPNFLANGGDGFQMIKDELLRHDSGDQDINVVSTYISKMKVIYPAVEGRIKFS
Nature of the assay: Enzymatic activity detection at the cellular level (Calu-6 cells, AMP substrate, Cell-titer Glo luminescence). The format is cell-based. To be noted: enzymatic IC50 at the Calu-6 cell level, 30 min pre-incubation, 120 min at 37° C. On the procedure: The Calu-6 cells were digested and re-suspended using TM buffer (25 mM Tris, 5 mM MgCl2, pH 7.5). Calu-6 cell suspension was seeded into 96 well cell culture plate, and the number of cells per well was 2.5×10^4, adding volume of 100 μL/well. Compound solution with gradient concentration was prepared by TM buffer, and 50 μL DMSO solution with different concentration was added into each pore cell. […] Pre-incubated in a shaker at 37° C. for 30 min. Each well was added with 50 μL 800 μM AMP solution. The shaker at 37° C. for 120 min was continued to incubate, then the 96-well plates were centrifuged and 50 μL supernatant was transferred to the new 96-well plates. […] The luminescence value was read by the multi-function enzymatic reader and converted into the inhibition percentage: Inhibition percentage=(1−reading/Max)*100. The “maximum value” was DMSO control. IC50 values were obtained by curve fitting with GraphPad Prism software.
The term pIC50 denotes the negative decadic logarithm of the IC50, by convention in mol/L. Read a low pIC50 as a high IC50. `COc1nnc(-c2c[nH]c(=O)[nH]c2=O)cc1C1CC1c1ccc(Cl)cc1` (centres unmarked) [Compound 33, 5-(5-(2-(4-chlorophenyl)cyclopropyl)-6-methoxypyridazin-3-yl)pyrimidine-2,4(1H,3H)-dione]: the pIC50 is 8.41.

`COc1nnc(-c2c[nH]c(=O)[nH]c2=O)cc1[C@H]1C[C@@H]1/C=C/c1ccccc1` [Compound 20, 5-(6-methoxy-S-((1S,2R)-2-((E)-styryl)cyclopropyl)pyridazin-3-yl)pyrimidine-2,4(1H,3H)-dione] had a pIC50 of 8.92.

`N#Cc1ccc(C#C[C@H]2C[C@@H]2c2cc(-c3c[nH]c(=O)[nH]c3=O)nnc2Cl)nc1` [Compound 38, 6-(((1S,2S)-2-(3-chloro-6-(2,4-dioxo-1,2,3,4-tetrahydropyrimidin-5-yl)pyridazin-4-yl)cyclopropyl)ethynyl)nicotinonitrile] had a negative-log IC50 (pIC50) of 8.43.

As for `COc1nnc(-c2c[nH]c(=O)[nH]c2=O)cc1[C@H]1C[C@@H]1C#Cc1ccc(C#N)cc1` [Compound 50], the pIC50 is 7.90.

With `C=C1CC(c2cc(-c3c[nH]c(=O)[nH]c3=O)nnc2Cl)C1` [Compound 4, 5-(6-chloro-5-(3-methylenecyclobutyl)pyridazin-3-yl)pyrimidine-2,4(1H,3H)-dione], the pIC50 was 7.65. Compared with the last molecule, the pIC50 is 0.25 log units lower.

Regarding `O=c1[nH]cc(-c2cc([C@H]3C[C@@H]3C#Cc3ccc(F)cc3)c(Cl)nn2)c(=O)[nH]1` [Compound 48], the negative-log IC50 (pIC50) was 8.42.

Regarding `O=c1[nH]cc(-c2cc([C@H]3C[C@@H]3c3ccccc3)cnn2)c(=O)[nH]1` [Compound 59, 5-(5-((1S,2S)-2-phenylcyclopropyl)pyridazin-3-yl)pyrimidine-2,4(1H,3H)-dione], the pIC50 is 8.00. Against the preceding molecule, the pIC50 is 0.42 log units lower.

Take `COc1nnc(-c2c[nH]c(=O)[nH]c2=O)cc1C1CC1c1ccc(C#N)cc1` (centres unmarked) [Compound 77, 4-(2-(6-(2,4-dioxo-1,2,3,4-tetrahydropyrimidin-5-yl)-3-methoxypyridazin-4-yl)cyclopropyl)benzonitrile]: the pIC50 is 8.14.

Molecule `Cc1ccc(C2CC2c2cc(-c3c[nH]c(=O)[nH]c3=O)nnc2Cl)cc1C` (centres unmarked) [Compound 62] gave a pIC50 of 8.25.

`Cc1nnc(-c2c[nH]c(=O)[nH]c2=O)cc1[C@H]1C[C@@H]1C#Cc1ccccc1` [Compound 41, 5-(6-methyl-5-((1S,2S)-2-(phenylethynyl)cyclopropyl)pyridazin-3-yl)pyrimidine-2,4(1H,3H)-dione]: the pIC50 is 8.12.

Regarding `C/C=C/[C@H]1C[C@@H]1c1cc(-c2c[nH]c(=O)[nH]c2=O)nnc1C` [Compound 8, 5-(6-methyl-5-((1S,2R)-2-((E)-prop-1-en-1-yl)cyclopropyl)pyridazin-3-yl)pyrimidine-2,4(1H,3H)-dione], the negative-log IC50 (pIC50) was 7.03.

Molecule `N#Cc1nnc(-c2c[nH]c(=O)[nH]c2=O)cc1C1CC1c1ccccc1` (centres unmarked) [Compound 34, 6-(2,4-dioxo-1,2,3,4-tetrahydropyrimidin-5-yl)-4-(2-phenylcyclopropyl)pyridazine-3-carbonitrile] showed a pIC50 of 8.23.

In the case of `N#Cc1cccc(C#C[C@H]2C[C@@H]2c2cc(-c3c[nH]c(=O)[nH]c3=O)nnc2Cl)c1` [Compound 19, 3-(((1S,2S)-2-(3-chloro-6-(2,4-dioxo-1,2,3,4-tetrahydropyrimidin-5-yl)pyridazin-4-yl)cvclopropyl)ethynyl)benzonitrile], the pIC50 was 8.52.

`Cc1ccc(C2CC2c2cc(-c3c[nH]c(=O)[nH]c3=O)nnc2Cl)c(C)c1` (centres unmarked) [Compound 61] showed a pIC50 of 7.72.

`Cc1cc(C)cc(C2CC2c2cc(-c3c[nH]c(=O)[nH]c3=O)nnc2Cl)c1` (centres unmarked) [Compound 63] gave a pIC50 of 7.72.

In turn, `N#Cc1ccc(C#C[C@H]2C[C@@H]2c2cc(-c3c[nH]c(=O)[nH]c3=O)nnc2Cl)cc1` [Compound 45] gave a pIC50 of 8.82.

In turn, `COc1nnc(-c2c[nH]c(=O)[nH]c2=O)cc1[C@H]1C[C@@H]1C#Cc1ccccc1` [Compound 21, 5-(6-methoxy-S-((1S,2S)-2-(phenylethynyl)cyclopropyl)pyridazin-3-yl)pyrimidine-2,4(1H,3H)-dione] had a negative logarithm of the IC50 (pIC50) of 8.26.

For `O=c1[nH]cc(-c2cc(C3CC3c3cc(F)c(F)cc3F)c(Cl)nn2)c(=O)[nH]1` (centres unmarked) [Compound 73], the pIC50 is 8.23.

With `O=c1[nH]cc(-c2cc(C3CC3c3ccc(-c4ccccc4)cc3)c(Cl)nn2)c(=O)[nH]1` (centres unmarked) [Compound 76], the pIC50 was 7.28. This pIC50 is 0.95 log units lower than that of the molecule before.

On to `Cc1nnc(-c2c[nH]c(=O)[nH]c2=O)cc1[C@H]1C[C@@H]1/C=C/c1ccccc1` [Compound 16, 5-(6-methyl-5-((1S,2R)-2-((E)-styryl)cyclopropyl)pyridazin-3-yl)pyrimidine-2,4(1H,3H)-dione], for which the pIC50 is 8.64.

As to `O=c1[nH]cc(-c2cc([C@@H]3C[C@H]3c3ccccc3)c(Cl)nn2)c(=O)[nH]1` [Compound D3, reference compound], the pIC50 was 5.84.

As to `O=c1[nH]cc(-c2cc(C3CC3c3ccc(C(F)(F)F)c(F)c3)c(Cl)nn2)c(=O)[nH]1` (centres unmarked) [Compound 68], the pIC50 was 7.82.

Consider `O=c1[nH]cc(-c2cc(C3CC3c3c(F)cc(F)cc3F)c(Cl)nn2)c(=O)[nH]1` (centres unmarked) [Compound 72], for which the pIC50 was 8.31. Compared with the last molecule, the pIC50 is 0.49 log units higher.

Molecule `COc1nnc(-c2c[nH]c(=O)[nH]c2=O)cc1C1CC1c1ccc(F)cc1` (centres unmarked) [Compound 32, 5-(5-(2-(4-fluorophenyl)cyclopropyl)-6-methoxypyridazin-3-yl)pyrimidine-2,4(1H,3H)-dione] gave a pIC50 of 8.27.

For the molecule `N#Cc1nnc(-c2c[nH]c(=O)[nH]c2=O)cc1C1CC1c1ccc(Cl)cc1` (centres unmarked) [Compound 36, 4-(2-(4-chlorophenyl)cyclopropyl)-6-(2,4-dioxo-1,2,3,4-tetrahydropyrimidin-5-yl)pyridazine-3-carbonitrile], the pIC50 was 8.72.

`Cc1nnc(-c2c[nH]c(=O)[nH]c2=O)cc1[C@H]1C[C@@H]1C=C(F)F` [Compound 11, 5-(5-((1S,2S)-2-(2,2-difluorovinyl)cyclopropyl)-6-methylpyridazin-3-yl)pyrimidine-2,4(1H,3H)-dione] showed a pIC50 of 7.34.

On to `COc1nnc(-c2c[nH]c(=O)[nH]c2=O)cc1[C@H]1C[C@@H]1C#Cc1cccc(C#N)c1` [Compound 51], for which the pIC50 was 8.37.

In turn, `Cc1nnc(-c2c[nH]c(=O)[nH]c2=O)cc1[C@H]1C[C@@H]1/C=C/C#N` [Compound 10, (E)-3-((1R,2S)-2-(6-(2,4-dioxo-1,2,3,4-tetrahydropyrimidin-5-yl)-3-methylpyridazin-4-yl)cyclopropyl)acrylonitrile] showed a pIC50 of 7.51.

In turn, `CC[C@H]1C[C@@H]1c1cc(-c2c[nH]c(=O)[nH]c2=O)nnc1C1CC1` [Compound 3, 5-(6-cyclopropyl-5-((1S,2S)-2-ethylcyclopropyl)pyridazin-3-yl)pyrimidine-2,4(1H,3H)-dione] showed a pIC50 of 6.14.

`O=c1[nH]cc(-c2cc([C@H]3C[C@@H]3C#Cc3ccccc3)c(Cl)nn2)c(=O)[nH]1` [Compound 18, 5-(6-chloro-5-((1S,2S)-2-(phenylethynyl)cyclopropyl)pyridazin-3-yl)pyrimidine-2,4(1H,3H)-dione] gave a pIC50 of 8.25. This pIC50 is 2.11 log units higher than that of the molecule before.

In turn, `C=Cc1nnc(-c2c[nH]c(=O)[nH]c2=O)cc1[C@H]1C[C@@H]1CC` [Compound 1, 5-(5-((1S,2S)-2-ethylcyclopropyl)-6-vinylpyridazin-3-yl)pyrimidine-2,4(1H,3H)-dione] gave a pIC50 of 7.67.

In turn, `C=C(C)c1nnc(-c2c[nH]c(=O)[nH]c2=O)cc1[C@H]1C[C@@H]1CC` [Compound 2, 5-(5-((1S,2S)-2-ethylcyclopropyl)-6-(prop-1-en-2-yl)pyridazin-3-yl)pyrimidine-2,4(1H,3H)-dione] gave a pIC50 of 6.48.

As to `N#Cc1nnc(-c2c[nH]c(=O)[nH]c2=O)cc1[C@H]1C[C@@H]1C#Cc1ccccc1` [Compound 54], the pIC50 is 8.09.

`O=c1[nH]cc(-c2cc(C3CC3c3ccc(F)c(C(F)(F)F)c3)c(Cl)nn2)c(=O)[nH]1` (centres unmarked) [Compound 69] had a pIC50 of 7.87.

`N#Cc1nnc(-c2c[nH]c(=O)[nH]c2=O)cc1C1CC1c1ccc(F)cc1` (centres unmarked) [Compound 35, 6-(2,4-dioxo-1,2,3,4-tetrahydropyrimidin-5-yl)-4-(2-(4-fluorophenyl)cyclopropyl)pyridazine-3-carbonitrile] showed a pIC50 of 8.96.

Molecule `O=c1[nH]cc(-c2cc([C@H]3C[C@@H]3C#Cc3ccc(Cl)cc3)c(Cl)nn2)c(=O)[nH]1` [Compound 47] had a pIC50 of 8.11.

For `Cc1nnc(-c2c[nH]c(=O)[nH]c2=O)cc1C1CC1Cc1ccccc1` (centres unmarked) [Compound D2, reference compound], the pIC50 was 6.94.

The molecule `O=c1[nH]cc(-c2cc(C3CC3c3cccc(F)c3F)c(Cl)nn2)c(=O)[nH]1` (centres unmarked) [Compound 70] showed a pIC50 of 8.15. This pIC50 is 1.21 log units higher than that of the molecule before.
